What was measured:
[1] = The drug is tested on Bacteroides uniformis strain: ATCC8492 for biotransformation. The drug concentrations were measured before and after a 12-h incubation by liquid-chromatography-coupled mass spectrometry (LC–MS); settings: 2 µM
[2] = segatella copri, 12 h, 2 µM
[3] = bacteroides eggerthii, 12 h, 2 µM
[4] = The drug is tested on Bacteroides fragilis strain: ATCC43859 for biotransformation. The drug concentrations were measured before and after a 12-h incubation by liquid-chromatography-coupled mass spectrometry (LC–MS); settings: 2 µM
[5] = The drug is tested on Subdoligranulum variabile strain: DSM15176 for biotransformation. The drug concentrations were measured before and after a 12-h incubation by liquid-chromatography-coupled mass spectrometry (LC–MS); settings: 2 µM
[6] = The drug is tested on Providencia rettgeri strain: DSM1131 for biotransformation. The drug concentrations were measured before and after a 12-h incubation by liquid-chromatography-coupled mass spectrometry (LC–MS); assay type: ADME; parameters: dose 2 uM, timepoint 0 vs 12 hours; settings: 2 µM
[7] = The drug is tested on Anaerococcus hydrogenalis strain: DSM7454 for biotransformation. The drug concentrations were measured before and after a 12-h incubation by liquid-chromatography-coupled mass spectrometry (LC–MS); settings: 2 µM
[8] = bacteroides fragilis, 12 h, 2 µM
[9] = The drug is tested on Bacteroides finegoldii strain: DSM17565 for biotransformation. The drug concentrations were measured before and after a 12-h incubation by liquid-chromatography-coupled mass spectrometry (LC–MS); settings: 2 µM
[10] = bacteroides thetaiotaomicron, 12 h, 2 µM
[11] = The drug is tested on Collinsella intestinalis strain: DSM13280 for biotransformation. The drug concentrations were measured before and after a 12-h incubation by liquid-chromatography-coupled mass spectrometry (LC–MS); settings: 2 µM
[12] = The drug is tested on Enterococcus faecalis strain: V583 for biotransformation. The drug concentrations were measured before and after a 12-h incubation by liquid-chromatography-coupled mass spectrometry (LC–MS); settings: 2 µM
[13] = The drug is tested on Anaerotruncus colihominis strain: DSM17241 for biotransformation. The drug concentrations were measured before and after a 12-h incubation by liquid-chromatography-coupled mass spectrometry (LC–MS); settings: 2 µM
[14] = bacteroides thetaiotaomicron, 12 h, 2 µM; remark: listed apart in the source
[15] = limosilactobacillus reuteri cf48-3a, 12 h, 2 µM
[16] = The drug is tested on Bacteroides caccae strain: ATCC43185 for biotransformation. The drug concentrations were measured before and after a 12-h incubation by liquid-chromatography-coupled mass spectrometry (LC–MS); settings: 2 µM
[17] = The drug is tested on Bacteroides sp. WH2 strain: WH2 for biotransformation. The drug concentrations were measured before and after a 12-h incubation by liquid-chromatography-coupled mass spectrometry (LC–MS); settings: bacteroides sp. wh2, 12 h, 2 µM
[18] = The drug is tested on Parabacteroides merdae strain: ATCC43184 for biotransformation. The drug concentrations were measured before and after a 12-h incubation by liquid-chromatography-coupled mass spectrometry (LC–MS); settings: 2 µM
[19] = The drug is tested on Clostridium symbiosum strain: ATCC14940 for biotransformation. The drug concentrations were measured before and after a 12-h incubation by liquid-chromatography-coupled mass spectrometry (LC–MS); settings: 2 µM

SMILES	Bacterial Biotransformation [1]	Bacterial Biotransformation [2]	Bacterial Biotransformation [3]	Bacterial Biotransformation [4]	Bacterial Biotransformation [5]	Bacterial Biotransformation [6]	Bacterial Biotransformation [7]	Bacterial Biotransformation [8]	Bacterial Biotransformation [9]	Bacterial Biotransformation [10]	Bacterial Biotransformation [11]	Bacterial Biotransformation [12]	Bacterial Biotransformation [13]	Bacterial Biotransformation [14]	Bacterial Biotransformation [15]	Bacterial Biotransformation [16]	Bacterial Biotransformation [17]	Bacterial Biotransformation [18]	Bacterial Biotransformation [19]
COc1ccc(CCN(C)CCCC(C#N)(c2ccc(OC)c(OC)c2)C(C)C)cc1OC (centres undefined)	Compound metabolized	Compound metabolized	Compound NOT metabolized	Compound NOT metabolized	Compound NOT metabolized	Compound NOT metabolized	Compound NOT metabolized	Compound NOT metabolized	Compound NOT metabolized	Compound metabolized	Compound NOT metabolized	Compound NOT metabolized	Compound NOT metabolized	Compound metabolized	Compound NOT metabolized	Compound NOT metabolized	Compound NOT metabolized	Compound NOT metabolized	–
O=P(O)(O)O.c1ccc(CN(CC2=NCCN2)c2ccccc2)cc1 [ANTAZOLINE PHOSPHATE]	Compound NOT metabolized	Compound NOT metabolized	Compound NOT metabolized	Compound NOT metabolized	Compound NOT metabolized	Compound NOT metabolized	Compound NOT metabolized	Compound NOT metabolized	Compound NOT metabolized	–	Compound NOT metabolized	Compound NOT metabolized	Compound NOT metabolized	Compound NOT metabolized	Compound NOT metabolized	Compound NOT metabolized	Compound NOT metabolized	Compound NOT metabolized	Compound NOT metabolized
Br.CN1CCC[C@@H]1Cc1c[nH]c2ccc(CCS(=O)(=O)c3ccccc3)cc12 [ELETRIPTAN HYDROBROMIDE]	Compound NOT metabolized	Compound NOT metabolized	Compound NOT metabolized	Compound NOT metabolized	Compound NOT metabolized	Compound NOT metabolized	Compound NOT metabolized	Compound NOT metabolized	Compound NOT metabolized	Compound NOT metabolized	Compound NOT metabolized	Compound NOT metabolized	Compound NOT metabolized	–	Compound NOT metabolized	Compound NOT metabolized	Compound NOT metabolized	Compound NOT metabolized	Compound NOT metabolized
COC1=CC(=O)C[C@@H](C)[C@]12Oc1c(Cl)c(OC)cc(OC)c1C2=O [GRISEOFULVIN]	Compound metabolized	Compound metabolized	Compound metabolized	Compound metabolized	Compound NOT metabolized	Compound NOT metabolized	Compound NOT metabolized	Compound metabolized	Compound NOT metabolized	–	Compound NOT metabolized	Compound NOT metabolized	Compound NOT metabolized	Compound metabolized	Compound NOT metabolized	Compound NOT metabolized	Compound NOT metabolized	Compound metabolized	Compound NOT metabolized
O=c1[nH]c2ccccc2n1C1CCN(CCCC(c2ccc(F)cc2)c2ccc(F)cc2)CC1 [PIMOZIDE]	Compound NOT metabolized	Compound NOT metabolized	Compound NOT metabolized	Compound NOT metabolized	Compound NOT metabolized	Compound NOT metabolized	Compound NOT metabolized	Compound NOT metabolized	Compound NOT metabolized	Compound NOT metabolized	Compound NOT metabolized	Compound NOT metabolized	Compound metabolized	Compound NOT metabolized	Compound NOT metabolized	Compound NOT metabolized	Compound NOT metabolized	Compound NOT metabolized	Compound NOT metabolized
COc1ccccc1OCC(O)CN1CCN(CC(=O)Nc2c(C)cccc2C)CC1 (centres undefined) [RANOLAZINE]	Compound NOT metabolized	Compound NOT metabolized	Compound NOT metabolized	Compound NOT metabolized	Compound NOT metabolized	Compound NOT metabolized	Compound NOT metabolized	Compound NOT metabolized	Compound NOT metabolized	Compound NOT metabolized	Compound NOT metabolized	Compound NOT metabolized	Compound NOT metabolized	Compound NOT metabolized	Compound NOT metabolized	Compound NOT metabolized	Compound NOT metabolized	Compound NOT metabolized	Compound NOT metabolized
COc1cc2nc(N3CCN(C(=O)C4CCCO4)CC3)nc(N)c2cc1OC (centres undefined) [TERAZOSIN]	Compound NOT metabolized	Compound NOT metabolized	Compound NOT metabolized	Compound NOT metabolized	Compound NOT metabolized	Compound NOT metabolized	Compound NOT metabolized	Compound NOT metabolized	Compound NOT metabolized	Compound NOT metabolized	Compound NOT metabolized	Compound NOT metabolized	Compound NOT metabolized	Compound NOT metabolized	Compound NOT metabolized	Compound NOT metabolized	Compound NOT metabolized	Compound NOT metabolized	Compound NOT metabolized
